From patent US7678788B2, “Diazabicyclic aryl derivatives” (Neurosearch A/S, priority 2003, dated 2010)

Target: T1, α7-subtype of nicotinic receptors (Rattus norvegicus, UniProt Q05941)
T1 construct: Cerebral cortices from male Wistar rats (150-250 g) are homogenised; from tissue; host or cells: rat cerebral cortex membrane homogenate
Assay: In vitro inhibition of 3H-α-bungarotoxine binding in rat brain
Settings: rat cerebral cortex homogenate; 3H-α-bungarotoxine 2 nM; 2 hours at 37° C.

T1 sequence (Q05941 23-502): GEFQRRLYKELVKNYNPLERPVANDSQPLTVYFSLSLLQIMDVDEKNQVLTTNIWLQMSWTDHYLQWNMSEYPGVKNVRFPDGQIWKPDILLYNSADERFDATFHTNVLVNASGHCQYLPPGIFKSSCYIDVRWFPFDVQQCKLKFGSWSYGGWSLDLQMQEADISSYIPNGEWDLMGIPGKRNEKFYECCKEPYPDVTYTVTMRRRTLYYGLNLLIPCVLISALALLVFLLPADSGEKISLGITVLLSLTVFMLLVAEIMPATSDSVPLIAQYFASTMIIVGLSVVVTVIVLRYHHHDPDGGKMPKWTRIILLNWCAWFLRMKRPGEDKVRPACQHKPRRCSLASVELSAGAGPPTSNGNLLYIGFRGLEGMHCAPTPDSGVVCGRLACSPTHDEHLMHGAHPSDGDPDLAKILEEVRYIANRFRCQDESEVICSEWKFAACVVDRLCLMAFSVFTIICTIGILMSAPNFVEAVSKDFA

Row | Compound | IC50 [µM]
1 | O=CNc1ccc(-c2ccc(C(=O)N3CCN4CCC3CC4)o2)cc1 [Compound F1, (1,4-Diaza-bicyclo[3.2.2]-non-4-yl)-5-(4-formylaminophenyl)-furan-2-yl-methanone] | 0.017
2 | O=C(c1ccc(-c2cccc(C(F)(F)F)c2)o1)N1CCN2CCC1CC2 [Compound A5, (1,4-Diaza-bicyclo[3.2.2]-non-4-yl)-5-(3-trifluoromethylphenyl)-furan-2-yl-methanone] | 0.051
3 | O=C(c1ccco1)N1CCN2CCC1CC2 [Compound A1, (1,4-Diaza-bicyclo[3.2.2]-non-4-yl)-furan-2-yl-methanone] | 0.54
4 | Nc1cccc(-c2ccc(C(=O)N3CCN4CCC3CC4)o2)c1 [Compound C3, (1,4-Diaza-bicyclo[3.2.2]-non-4-yl)-5-(3-aminophenyl)-furan-2-yl-methanone] | 0.08
